One experiment addresses Granzyme B (Homo sapiens, UniProt P10144). Particulars: cited from earlier work.
Another experiment addresses Calpain/Cathepsin. The conditions noted are these: cited from earlier work.
The subject of the next experiment is U-937 cells. Description: Mitochondrial permeability transition pore (MPTP) calcein-cobalt assay. It is filed as cell-based, Human. The conditions noted are these: calcein-cobalt quenching. As for the experimental part:
Mitochondrial Permeability Transition Pore (MPTP) Calcein-Cobalt Assay.
U-937 cells (1×10^6 cells/mL in HBSS) were loaded with calcein-AM (20 nM final concentration) for 45 minutes at 37° C. The cells were washed with HBSS and resuspended in RPMI and plated into a 24-well plate (1×10^6 cells in 1 mL). The cells were treated with Raptinal (10 μM) for 15, 30, 45, 60 and 90 minutes. Cobalt(II) chloride was added (10 μL of 80 mM stock in HBSS) to the cells 10 minutes prior to the end of the time points. The cells were pelleted and resuspended in HBSS (0.5 mL) and calcein fluorescence was measured by flow cytometry. As a positive control for MPTP, ionomycin and calcium were added to calcein-labeled cells in HBSS 10 minutes prior to analysis by flow cytometry.

Non-standard residues stand in square brackets, D forms with d. Residues, ends and D or L forms follow the SMILES beside them. *: point of attachment. Nle = CCCC[C@H](N)C(=O)O; Cbz = O=C(OCc1ccccc1)*; CH2Cl = ClC*

The values that follow come from patent US9682060B2, “Small molecules that induce intrinsic pathway apoptosis” (The Board of Trustees of the University of Illinois, priority 2015, dated 2017).

Granzyme B, sequence (P10144 21-247, species assumed): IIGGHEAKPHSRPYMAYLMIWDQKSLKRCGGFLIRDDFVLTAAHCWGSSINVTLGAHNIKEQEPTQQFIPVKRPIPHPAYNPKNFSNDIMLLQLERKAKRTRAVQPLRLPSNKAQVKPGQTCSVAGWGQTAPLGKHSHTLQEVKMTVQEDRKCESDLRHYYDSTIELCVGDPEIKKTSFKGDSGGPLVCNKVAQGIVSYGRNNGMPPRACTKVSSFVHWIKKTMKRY

As for `CC(NC(=O)OCc1ccccc1)C(=O)NC(C)C(=O)NC(CC(=O)O)C(=O)CCl` (stereo not drawn) [Granzyme B Inhibitor I] (Cbz-Ala-Ala-Asp-CH2Cl; configuration not given here), the Ki (as a rule, the equilibrium dissociation constant of an inhibitor or competing ligand from its target) on Granzyme B is 0.3 µM.

As to `CCCC[C@@H](C=O)NC(=O)[C@H](CC(C)C)NC(=O)[C@H](CC(C)C)NC(C)=O` [Calpain/Cathepsin Inhibitor I] (Ac-Leu-Leu-[Nle]-aldehyde), the Ki on Calpain/Cathepsin was 0.12 to 0.23 µM.

In the case of `C[C@H](CCC(=O)O)C[C@H](C)C[C@H](C)C(=O)/C=C(\O)[C@H](C)C[C@H](C)C/C=C/[C@@H](C)[C@@H](O)[C@@H](C)[C@@H](O)C[C@@H]1CC[C@@](C)([C@H]2CC[C@@](C)([C@@H](C)O)O2)O1` [lonomycin, ionomycin, reference compound], the “mitochondrial permeability transition pore (MPTP) formation” value in the experiment on U-937 cells is on record as “able to induce MPTP”.
